The source of these data is patent publication CN102743371A, “一种治疗视网膜新生血管性疾病的药物” (SPECIALTY OF OPHTHALMOLOGY RESEARCH INSTITUTE SHANDONG PROV, priority 2012, dated 2012).

The test system of assay [1] is retinal neovascularization (视网膜新生血管). Kind of assay: Oxygen-induced retinopathy (OIR) mouse model; retinal flat mount with FITC-conjugated isolectin-B4, fluorescence microscopy of retinal neovascularization at P17. Type of assay: in vivo.
A further assay deals with VEGF-A. The assay is described as follows: Western blot of VEGF-A protein in retina of OIR mice (PBS control group and FUT-175 treated group). Type of assay: in vivo, mouse. The settings on record: retina total protein.

On to `N=C(N)c1ccc2cc(OC(=O)c3ccc(N=C(N)N)cc3)ccc2c1` [甲磺酸萘莫司他], for which, in assay [1] (C3aR-/- and C5aR-/- mice, same OIR treatment), the “change in retinal neovascularization growth after injection” value is listed as “变化并不明显”. In addition, in assay [1] (C57BL/6J mice, OIR (75% oxygen from P7 for 5 d), 50 mg/kg i.p. daily from P12, evaluated at P17), the fundus vessel growth result is on record as “血管生长趋于正常”. Moreover, in assay [1] (C57BL/6J mice, OIR (75% oxygen from P7 for 5 d), 50 mg/kg i.p. daily from P12, evaluated at P17, fluorescence microscopy), the “inhibition of RNV growth” value is “能够明显抑制RNV的生长”. Also, the VEGF-A expression change result in the assay on VEGF-A (C3aR and C5aR knockout) is “无检测到VEGF-A的表达变化”. In addition, the VEGF-A protein expression result in the assay on VEGF-A (C57BL/6J) was “可调节VEGF-A的蛋白表达”.
